Laboratory results taken from patent US12268724B2, “Methods and compositions for the prevention or treatment of Barth Syndrome” (Stealth BioTherapeutics Inc., priority 2013, dated 2025).
Where no end group is shown, it is not given here. [ ]: non-standard residue; d: D form.

Tests used:
mitochondria = assay: Electron microscopy of mitochondrial ultrastructure and organization in tissue from cardiac disease subject; assay type: in vivo
Experimental: A tissue sample from a subject with Barth Syndrome and tissue samples from a subject with cardiac disease was prepared for electron microscopy imaging of the mitochondria using standards known in the art. […] FIG. 3.

mu-opioid receptor = mu-opioid receptor (Homo sapiens, UniProt P35372); assay: Mu-opioid receptor agonist activity; conditions: stated in description, no test described
TAZ1 = TAZ1 mRNA expression in a dog model of heart failure (real-time PCR of LV tissue); assay type: in vivo; conditions: dogs with microembolization-induced heart failure, 0.5 mg/kg once daily subcutaneous, three months, saline control 2.25-fold
Experimental: Twelve dogs were subject to coronary microembolization-induced heart failure (LV ejection fraction ˜30%) as described above in Example 1. Subjects were randomized into D-Arg-2′6′-Dmt-Lys-Phe-NH2-treated and control groups for a three-month trial. Subjects received subcutaneous injections of D-Arg-2′6′-Dmt-Lys-Phe-NH2 (0.5 mg/kg once daily, n=6) or saline (Untreated-HF Control, n=6). RNA was prepared from LV tissue of all subjects at the end of the treatment phase and from the LV of six normal subject controls. Levels of TAZ1 mRNA were determined by real-time PCR. Changes in mRNA levels were expressed as fold reduction using the CT Method, with normalization to a […] (GAPDH) internal control.

[1] = test system: plasma membrane of several mammalian cell types; conditions: cited from earlier work

Chain of mu-opioid receptor (P35372 whole entry, species assumed): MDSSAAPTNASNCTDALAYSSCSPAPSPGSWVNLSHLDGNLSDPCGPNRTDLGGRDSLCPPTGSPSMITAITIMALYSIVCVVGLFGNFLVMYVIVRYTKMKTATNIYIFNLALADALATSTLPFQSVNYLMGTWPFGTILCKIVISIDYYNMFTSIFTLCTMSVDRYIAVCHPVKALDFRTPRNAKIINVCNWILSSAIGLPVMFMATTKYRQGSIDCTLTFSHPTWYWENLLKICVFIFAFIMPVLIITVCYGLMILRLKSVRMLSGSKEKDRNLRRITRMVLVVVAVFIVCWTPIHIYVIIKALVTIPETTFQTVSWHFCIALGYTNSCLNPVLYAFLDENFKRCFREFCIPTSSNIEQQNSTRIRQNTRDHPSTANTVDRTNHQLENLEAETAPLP

For D-Arg-2′6′-Dmt-Lys-Phe-NH2, the “ultrastructure of the mitochondria (electron microscopy)” value (mitochondria; cardiac disease subject treated with an effective amount, FIG. 4A vs 4B) was “ameliorated the abnormal features of the ultrastructure of the mitochondria”, the “organization of the mitochondria (electron microscopy)” value (mitochondria; tissue from treated vs not treated cardiac disease subject, FIGS. 5A-5B) was “improved organization of the mitochondria” and the “mu-opioid receptor agonist activity” value (mu-opioid receptor) was “does not have mu-opioid receptor agonist activity”. The “decrease in TAZ1 mRNA relative to normal subjects (fold reduction, CT Method, normalized to GAPDH)” value (TAZ1) was 1.23 fold.
In the case of 2′, 6′-Dmt-D-Arg-Phe-Lys-NH2, the “penetration of the plasma membrane” value [1] is given as “readily penetrates the plasma membrane of several mammalian cell types in an energy-independent manner”.
In the case of F[dR]FK-NH2, the “mu-opioid receptor agonist activity” value (mu-opioid receptor) is reported as “does not have mu-opioid receptor agonist activity”.
For Tyr-D-Arg-Phe-Lys-NH2, the “mu-opioid receptor agonist activity” value (mu-opioid receptor) was “has mu-opioid receptor agonist activity”.
